One assay deals with MOLT-4. Briefly: Concentration giving 50% inhibition of HIV-1 induced cytopathogenicity in MOLT-4 cells. In kind it is functional, cell-based, Homo sapiens.
Assay [1] deals with Lactase/phlorizin hydrolase (Rattus norvegicus, UniProt Q02401). Briefly: Inhibition of Glycosidases (lactase)in rat intestinal brush border membranes by D-glucose oxidase-peroxidase method. In kind it is cell membranes, Membrane.
Another assay concerns MT4. Briefly: Concentration giving 50% inhibition of HIV-1 induced cytopathogenicity in MT-4 cells. In kind it is functional, cell-based, Homo sapiens.
The nature of assay [2]: Inhibition of Cellobiase in rat intestinal brush border membranes by D-glucose oxidase-peroxidase method. The class given is cell membranes, Membrane.
The target of assay [3] is T1, Alpha-mannosidase 2 (Rattus norvegicus, UniProt P28494).
T1 sequence (P28494 whole entry): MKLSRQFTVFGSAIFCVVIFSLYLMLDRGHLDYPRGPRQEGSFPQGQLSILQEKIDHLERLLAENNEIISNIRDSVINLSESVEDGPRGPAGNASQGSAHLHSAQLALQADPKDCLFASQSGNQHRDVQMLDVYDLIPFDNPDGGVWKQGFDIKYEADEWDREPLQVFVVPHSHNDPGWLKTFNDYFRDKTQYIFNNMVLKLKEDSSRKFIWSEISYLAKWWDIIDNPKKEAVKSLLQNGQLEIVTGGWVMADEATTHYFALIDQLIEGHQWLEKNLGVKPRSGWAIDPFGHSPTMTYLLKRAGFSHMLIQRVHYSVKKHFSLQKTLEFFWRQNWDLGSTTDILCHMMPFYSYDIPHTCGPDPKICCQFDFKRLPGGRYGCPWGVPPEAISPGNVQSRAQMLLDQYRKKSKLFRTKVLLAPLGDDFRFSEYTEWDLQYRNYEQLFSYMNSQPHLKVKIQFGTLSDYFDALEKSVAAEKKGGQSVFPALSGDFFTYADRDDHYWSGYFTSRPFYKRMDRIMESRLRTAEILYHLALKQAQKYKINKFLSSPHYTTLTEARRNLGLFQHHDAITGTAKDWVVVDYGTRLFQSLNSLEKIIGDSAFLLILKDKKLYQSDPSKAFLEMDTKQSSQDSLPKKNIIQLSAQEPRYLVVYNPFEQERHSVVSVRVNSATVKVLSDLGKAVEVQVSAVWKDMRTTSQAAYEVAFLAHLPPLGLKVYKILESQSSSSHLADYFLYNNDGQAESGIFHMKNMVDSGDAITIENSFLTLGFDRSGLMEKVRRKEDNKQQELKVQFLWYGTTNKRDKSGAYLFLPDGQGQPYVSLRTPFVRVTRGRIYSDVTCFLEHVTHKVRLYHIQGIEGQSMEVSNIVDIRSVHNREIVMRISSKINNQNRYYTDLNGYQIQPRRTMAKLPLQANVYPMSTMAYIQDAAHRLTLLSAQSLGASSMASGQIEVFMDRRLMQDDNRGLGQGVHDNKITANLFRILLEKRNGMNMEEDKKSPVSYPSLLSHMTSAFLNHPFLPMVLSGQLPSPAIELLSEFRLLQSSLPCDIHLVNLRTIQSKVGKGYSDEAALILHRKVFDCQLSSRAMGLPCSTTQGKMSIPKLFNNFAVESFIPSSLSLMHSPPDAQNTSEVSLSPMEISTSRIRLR
Briefly: Inhibition of golgi Alpha-mannosidase II in rat liver. The class given is tissue-based.

A short description of assay [4]: Inhibition of endoplasmic reticulum Alpha-Glucosidase II in rat liver. The class given is tissue-based.
The nature of assay [5]: Inhibition of lysosomal Alpha-Glucosidase II in rat liver.
The target in assay [6] is T1, Alpha-mannosidase 2. Briefly: Competitive Inhibitory activity against Golgi Alpha-mannosidase II.
The target of a further assay is T2, Trehalase (Rattus norvegicus, UniProt O70282).
T2 sequence (O70282 whole entry): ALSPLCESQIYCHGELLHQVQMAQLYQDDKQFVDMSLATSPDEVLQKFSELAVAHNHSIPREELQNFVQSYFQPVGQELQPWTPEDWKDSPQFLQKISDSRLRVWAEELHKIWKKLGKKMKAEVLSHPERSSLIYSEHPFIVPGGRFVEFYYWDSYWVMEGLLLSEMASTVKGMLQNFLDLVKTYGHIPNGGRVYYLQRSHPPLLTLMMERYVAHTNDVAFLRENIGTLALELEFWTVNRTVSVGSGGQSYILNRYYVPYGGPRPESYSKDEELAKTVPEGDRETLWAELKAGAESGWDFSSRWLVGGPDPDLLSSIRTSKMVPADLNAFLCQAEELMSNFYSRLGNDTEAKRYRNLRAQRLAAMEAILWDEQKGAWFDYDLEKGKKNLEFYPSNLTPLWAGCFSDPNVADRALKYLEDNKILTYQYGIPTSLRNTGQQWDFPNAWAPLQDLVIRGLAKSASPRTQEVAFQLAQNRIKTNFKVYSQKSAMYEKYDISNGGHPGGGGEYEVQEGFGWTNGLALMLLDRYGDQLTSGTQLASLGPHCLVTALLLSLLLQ
Description: Inhibition of Glycosidases (trehalase)in rat intestinal brush border membranes by D-glucose oxidase-peroxidase method. The class given is cell membranes, Membrane.

Assay [7] is described as follows: Competitive Inhibitory activity against Endoplasmic reticulum Alpha-Glucosidase II. Also noted: species or system Rattus norvegicus.
The target in assay [8] is T3, Sucrase-isomaltase, intestinal (Rattus norvegicus, UniProt P23739). Description: Inhibition of Sucrase in rat intestinal brush border membranes by D-glucose oxidase-peroxidase method. The class given is cell membranes, Membrane.
T3 sequence (P23739 1-1013 limits assumed): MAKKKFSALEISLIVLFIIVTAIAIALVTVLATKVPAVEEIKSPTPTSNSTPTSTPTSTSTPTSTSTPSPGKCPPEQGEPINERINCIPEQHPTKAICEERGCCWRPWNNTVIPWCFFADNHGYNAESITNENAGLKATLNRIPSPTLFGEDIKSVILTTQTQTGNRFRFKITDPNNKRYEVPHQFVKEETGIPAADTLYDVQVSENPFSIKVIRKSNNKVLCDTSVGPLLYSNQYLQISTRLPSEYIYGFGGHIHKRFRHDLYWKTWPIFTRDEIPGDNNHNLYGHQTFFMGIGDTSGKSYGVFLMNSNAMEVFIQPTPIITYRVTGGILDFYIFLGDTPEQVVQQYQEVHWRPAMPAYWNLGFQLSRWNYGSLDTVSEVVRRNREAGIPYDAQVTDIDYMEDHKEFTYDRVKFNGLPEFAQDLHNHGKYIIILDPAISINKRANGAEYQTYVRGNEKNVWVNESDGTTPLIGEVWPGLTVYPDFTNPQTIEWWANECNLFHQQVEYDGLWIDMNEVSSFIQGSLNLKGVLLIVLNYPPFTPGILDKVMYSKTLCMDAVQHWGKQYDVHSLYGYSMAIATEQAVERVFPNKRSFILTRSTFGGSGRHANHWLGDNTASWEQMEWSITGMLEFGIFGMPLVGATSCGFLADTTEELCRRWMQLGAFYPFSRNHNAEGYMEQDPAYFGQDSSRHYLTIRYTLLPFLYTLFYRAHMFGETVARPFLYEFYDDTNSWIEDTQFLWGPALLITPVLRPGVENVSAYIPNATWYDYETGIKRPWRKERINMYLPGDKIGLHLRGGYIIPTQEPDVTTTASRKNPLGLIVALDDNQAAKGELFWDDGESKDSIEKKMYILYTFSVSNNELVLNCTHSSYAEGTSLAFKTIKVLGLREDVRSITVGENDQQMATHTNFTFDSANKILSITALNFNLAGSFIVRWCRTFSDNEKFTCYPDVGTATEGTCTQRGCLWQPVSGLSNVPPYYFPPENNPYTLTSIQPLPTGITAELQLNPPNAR
T3 sequence (P23739 1014-1841 limits assumed): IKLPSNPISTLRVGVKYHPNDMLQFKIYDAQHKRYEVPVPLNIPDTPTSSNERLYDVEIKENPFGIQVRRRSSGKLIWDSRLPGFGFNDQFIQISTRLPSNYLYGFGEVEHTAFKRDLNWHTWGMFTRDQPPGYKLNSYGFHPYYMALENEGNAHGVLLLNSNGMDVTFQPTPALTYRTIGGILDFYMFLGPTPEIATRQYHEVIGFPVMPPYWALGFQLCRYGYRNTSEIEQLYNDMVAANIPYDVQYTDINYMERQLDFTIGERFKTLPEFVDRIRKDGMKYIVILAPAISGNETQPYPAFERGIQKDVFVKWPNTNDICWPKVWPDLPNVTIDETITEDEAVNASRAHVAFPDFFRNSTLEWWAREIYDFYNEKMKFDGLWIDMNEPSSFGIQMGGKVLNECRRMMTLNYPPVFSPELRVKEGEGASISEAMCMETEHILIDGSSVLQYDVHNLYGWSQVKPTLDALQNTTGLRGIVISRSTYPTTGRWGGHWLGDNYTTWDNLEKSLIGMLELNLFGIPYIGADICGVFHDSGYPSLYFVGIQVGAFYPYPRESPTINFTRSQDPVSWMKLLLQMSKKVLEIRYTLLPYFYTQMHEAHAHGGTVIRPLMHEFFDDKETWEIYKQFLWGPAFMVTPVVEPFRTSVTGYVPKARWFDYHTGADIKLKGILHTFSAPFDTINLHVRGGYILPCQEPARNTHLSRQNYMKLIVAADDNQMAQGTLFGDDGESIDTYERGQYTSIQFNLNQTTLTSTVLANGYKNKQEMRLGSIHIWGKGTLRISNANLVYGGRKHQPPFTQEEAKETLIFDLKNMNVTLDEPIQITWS
The target of a further assay is T4, Mannosidase 2, alpha B1 (Rattus norvegicus, UniProt Q6P762).
T4 sequence (Q6P762 whole entry): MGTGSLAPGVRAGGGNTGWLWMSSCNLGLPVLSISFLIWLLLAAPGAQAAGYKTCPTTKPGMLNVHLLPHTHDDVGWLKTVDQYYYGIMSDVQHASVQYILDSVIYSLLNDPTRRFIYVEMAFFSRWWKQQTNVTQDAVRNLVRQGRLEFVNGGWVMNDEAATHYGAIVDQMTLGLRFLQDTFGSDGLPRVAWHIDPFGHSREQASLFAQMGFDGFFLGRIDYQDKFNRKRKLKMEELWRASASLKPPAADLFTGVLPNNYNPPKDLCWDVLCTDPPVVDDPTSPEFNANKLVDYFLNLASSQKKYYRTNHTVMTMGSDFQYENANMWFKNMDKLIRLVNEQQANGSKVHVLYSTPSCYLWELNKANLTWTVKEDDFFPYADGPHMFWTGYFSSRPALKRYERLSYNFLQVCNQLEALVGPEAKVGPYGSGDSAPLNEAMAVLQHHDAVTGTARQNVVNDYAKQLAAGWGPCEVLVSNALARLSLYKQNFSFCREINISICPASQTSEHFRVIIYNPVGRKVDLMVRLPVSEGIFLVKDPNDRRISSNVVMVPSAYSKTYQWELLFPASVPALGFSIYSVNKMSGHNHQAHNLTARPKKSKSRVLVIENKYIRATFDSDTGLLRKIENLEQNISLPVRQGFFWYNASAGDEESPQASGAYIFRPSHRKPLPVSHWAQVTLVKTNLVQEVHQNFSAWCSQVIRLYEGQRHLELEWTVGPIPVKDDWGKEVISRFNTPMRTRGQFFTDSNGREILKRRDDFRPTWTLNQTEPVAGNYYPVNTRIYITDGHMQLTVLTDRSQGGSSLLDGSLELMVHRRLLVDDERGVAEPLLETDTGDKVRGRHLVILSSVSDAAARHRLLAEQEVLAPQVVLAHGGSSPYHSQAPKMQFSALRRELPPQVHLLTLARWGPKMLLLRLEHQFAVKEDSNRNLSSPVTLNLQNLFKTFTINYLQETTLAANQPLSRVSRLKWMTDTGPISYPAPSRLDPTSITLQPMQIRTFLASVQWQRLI
Description: Inhibition of lysosomal Alpha-mannosidase II in rat liver. In kind it is tissue-based.

Assay [9] addresses T3, Sucrase-isomaltase, intestinal. Briefly: Inhibition of Glycosidases (isomaltase)in rat intestinal brush border membranes by D-glucose oxidase-peroxidase method. The class given is cell membranes, Membrane.
In a further assay the target is T5, Alpha-mannosidase 2C1 (Rattus norvegicus, UniProt P21139).
T5 sequence (P21139 whole entry): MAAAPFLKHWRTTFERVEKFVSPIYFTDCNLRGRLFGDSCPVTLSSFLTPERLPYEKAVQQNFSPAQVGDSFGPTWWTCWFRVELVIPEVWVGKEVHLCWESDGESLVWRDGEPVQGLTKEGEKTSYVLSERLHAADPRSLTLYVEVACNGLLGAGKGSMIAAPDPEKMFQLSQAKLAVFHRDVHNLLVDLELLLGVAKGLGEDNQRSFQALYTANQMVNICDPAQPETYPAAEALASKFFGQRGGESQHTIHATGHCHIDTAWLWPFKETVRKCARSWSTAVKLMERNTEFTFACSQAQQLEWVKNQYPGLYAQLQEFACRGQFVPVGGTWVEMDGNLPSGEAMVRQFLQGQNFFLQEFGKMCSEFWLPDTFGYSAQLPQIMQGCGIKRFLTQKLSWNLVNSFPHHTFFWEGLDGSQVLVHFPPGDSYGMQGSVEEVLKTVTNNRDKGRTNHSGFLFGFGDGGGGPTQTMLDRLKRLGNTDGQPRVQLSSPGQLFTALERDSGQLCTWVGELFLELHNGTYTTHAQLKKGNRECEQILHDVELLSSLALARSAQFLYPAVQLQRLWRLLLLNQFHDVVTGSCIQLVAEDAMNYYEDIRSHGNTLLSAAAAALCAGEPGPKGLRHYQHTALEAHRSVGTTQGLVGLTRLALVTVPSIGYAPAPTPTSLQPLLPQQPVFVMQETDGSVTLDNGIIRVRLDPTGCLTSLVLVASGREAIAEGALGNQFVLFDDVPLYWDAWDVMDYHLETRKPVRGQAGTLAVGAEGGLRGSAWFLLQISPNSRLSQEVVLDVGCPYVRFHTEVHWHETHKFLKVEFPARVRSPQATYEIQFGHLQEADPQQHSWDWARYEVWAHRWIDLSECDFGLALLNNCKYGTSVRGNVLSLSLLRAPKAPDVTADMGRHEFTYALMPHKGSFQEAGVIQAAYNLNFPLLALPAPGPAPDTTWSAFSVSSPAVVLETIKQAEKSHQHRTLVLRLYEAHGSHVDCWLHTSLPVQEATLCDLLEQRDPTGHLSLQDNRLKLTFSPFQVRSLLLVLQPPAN
Description: Inhibition of soluble Alpha-mannosidase II in rat liver. The class given is tissue-based.

These results are taken from ChEMBL document CHEMBL1128713, “N-alkylated nitrogen-in-the-ring sugars: conformational basis of inhibition of glycosidases and HIV-1 replication” (J Med Chem, 1995).

Molecules are shown by their SMILES.

Chain of Lactase/phlorizin hydrolase (Q02401 868-1928 limits assumed): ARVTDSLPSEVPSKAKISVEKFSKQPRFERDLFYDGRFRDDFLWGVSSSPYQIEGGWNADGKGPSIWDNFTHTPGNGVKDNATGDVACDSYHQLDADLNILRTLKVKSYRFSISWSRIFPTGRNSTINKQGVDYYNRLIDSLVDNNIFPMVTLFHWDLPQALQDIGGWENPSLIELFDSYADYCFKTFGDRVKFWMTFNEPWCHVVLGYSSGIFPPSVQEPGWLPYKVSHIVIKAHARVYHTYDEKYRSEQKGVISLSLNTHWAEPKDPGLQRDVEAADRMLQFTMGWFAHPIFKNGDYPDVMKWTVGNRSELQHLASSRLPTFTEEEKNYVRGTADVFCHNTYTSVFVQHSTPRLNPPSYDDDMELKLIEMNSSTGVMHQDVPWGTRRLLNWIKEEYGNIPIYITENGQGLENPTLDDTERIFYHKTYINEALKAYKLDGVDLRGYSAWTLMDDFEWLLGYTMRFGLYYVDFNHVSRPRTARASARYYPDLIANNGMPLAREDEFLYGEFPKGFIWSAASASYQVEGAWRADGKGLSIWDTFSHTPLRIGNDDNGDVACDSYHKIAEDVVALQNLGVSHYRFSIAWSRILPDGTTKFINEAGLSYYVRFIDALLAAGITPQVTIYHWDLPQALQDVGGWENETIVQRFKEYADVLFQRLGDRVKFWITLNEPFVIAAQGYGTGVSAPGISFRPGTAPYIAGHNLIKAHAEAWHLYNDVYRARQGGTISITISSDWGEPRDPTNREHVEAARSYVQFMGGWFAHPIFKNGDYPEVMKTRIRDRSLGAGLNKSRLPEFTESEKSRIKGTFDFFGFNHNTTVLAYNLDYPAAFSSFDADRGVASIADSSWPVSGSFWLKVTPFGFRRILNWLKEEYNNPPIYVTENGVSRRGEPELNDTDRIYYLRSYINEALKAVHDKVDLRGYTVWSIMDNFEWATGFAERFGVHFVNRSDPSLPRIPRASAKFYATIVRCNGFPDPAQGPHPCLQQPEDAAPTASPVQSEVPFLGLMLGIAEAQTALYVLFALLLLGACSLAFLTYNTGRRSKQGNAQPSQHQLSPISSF

On to `OC[C@H]1NC[C@@H](O)[C@@H]1O`, for which the EC50 with MOLT-4 and in the assay with MT4 was greater than 100 µg/mL throughout. Moreover, the IC50 in assay [1] is 260 µM; in assay [2], less than 50 µM; on Alpha-mannosidase 2 [3], 46 µM; in assay [4] it was 20 µM; in [5] it was 130 µM; at Trehalase, 25 µM. Besides, the Ki at Alpha-mannosidase 2 [6] turned out to be 35 µM; in [7], 9.7 µM.
As to `CCCCN1[C@H](CO)[C@@H](O)[C@H](O)[C@H]1CO`, the EC50 in the assay with MOLT-4 and in the assay on MT4 was greater than 100 µg/mL in each case. Besides, the IC50 is less than 50 µM in assay [1]; less than 50 µM in [8]; less than 50 µM in [2]; less than 50 µM against Alpha-mannosidase 2 [3]; less than 50 µM against Mannosidase 2, alpha B1; less than 50 µM in assay [4]. In addition, the IC50 in [9] is less than 50 µM; in assay [5], less than 50 µM; against Alpha-mannosidase 2C1 it was 850 µM.
For `OC[C@H]1NC[C@H](O)[C@@H](O)[C@@H]1O` [DUVOGLUSTAT], the EC50 in the assay with MOLT-4 and with MT4 was greater than 100 µg/mL throughout. Besides, the IC50 on Alpha-mannosidase 2 [3] is less than 50 µM; in assay [5], 0.4 µM. In addition, the Ki at Alpha-mannosidase 2 [6] was less than 50 µM.
`CN1[C@H](CO)[C@@H](O)[C@H](O)[C@H]1CO`: the EC50 in the assay on MOLT-4 and with MT4 was greater than 100 µg/mL each time. The 50% inhibitory concentration (IC50) is less than 50 µM in [1]; 620 µM in assay [8]; less than 50 µM in assay [2]; less than 50 µM on Alpha-mannosidase 2 [3]; less than 50 µM on Mannosidase 2, alpha B1; less than 50 µM in assay [4]. For the same molecule, the IC50 in assay [9] was less than 50 µM; in [5] it was 470 µM; at Alpha-mannosidase 2C1, 190 µM.
Consider `OC[C@H]1N[C@H](CO)[C@@H](O)[C@@H]1O`, for which the EC50 with MOLT-4 and in the assay on MT4 was greater than 100 µg/mL throughout. Also, the IC50 in [8] was 44 µM; on Mannosidase 2, alpha B1 it was less than 50 µM; in [4] it was less than 50 µM; in assay [9], 91 µM; against Alpha-mannosidase 2C1, 260 µM.
